# Experimental data from ChEMBL document CHEMBL6177939, “The role of silicon in drug discovery: a review” (RSC Med Chem, 2024).
# Tests used:
# HT-1080 [1] = assay: Cytotoxicity against human HT-1080 cells assessed as reduction in cell growth by measuring lethal concentration for 72 hrs by MTT assay; type: functional
# MG-22A [2] = assay: Cytotoxicity against mouse MG-22A cells assessed as reduction in cell growth by measuring lethal concentration for 72 hrs by MTT assay; type: functional
# [3] = system: Panel NCI-60 (60 carcinoma cell lines); assay: Cytotoxicity against human Panel NCI-60 (60 carcinoma cell lines) assessed as reduction in cell growth incubated for 72 hrs by CCK-8 assay; type: functional, cell-based
# [4] = Agonist activity at rat GPR81 transfected in T-REX-CHO cells by cAMP assay; type: cell-based
# [5] = molecular target: Hydroxycarboxylic acid receptor 2 (Rattus norvegicus, UniProt Q80Z39); assay: Agonist activity at rat GPR109A transfected in T-REX-CHO cells by cAMP assay; type: cell-based
# Chain of Hydroxycarboxylic acid receptor 2 (Q80Z39 whole entry): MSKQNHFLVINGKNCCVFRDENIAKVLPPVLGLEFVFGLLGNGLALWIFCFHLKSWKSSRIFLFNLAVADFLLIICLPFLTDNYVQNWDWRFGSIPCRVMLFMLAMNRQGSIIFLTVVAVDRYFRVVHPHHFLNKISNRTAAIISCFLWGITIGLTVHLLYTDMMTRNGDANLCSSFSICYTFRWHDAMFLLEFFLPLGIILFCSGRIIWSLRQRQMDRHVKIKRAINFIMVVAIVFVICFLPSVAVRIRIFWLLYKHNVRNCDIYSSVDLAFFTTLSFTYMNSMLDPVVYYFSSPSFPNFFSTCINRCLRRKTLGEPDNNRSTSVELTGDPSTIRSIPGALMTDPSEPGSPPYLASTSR
# [6] = system: Staphylococcus epidermidis; assay: Antibacterial activity against Staphylococcus epidermidis assessed as inhibition of bacterial growth incubated for 24 hrs by nutrient agar plate method; type: functional
# Pseudomonas aeruginosa = assay: Antibacterial activity against Pseudomonas aeruginosa PTCC 1074 assessed as reduction in cell growth incubated for 24 hrs by Mueller-Hinton Broth micro dilution method; type: functional
# Staphylococcus aureus [7] = assay: Antibacterial activity against Staphylococcus aureus PTCC 1112 assessed as reduction in cell growth incubated for 24 hrs by Mueller-Hinton Broth micro dilution method; type: functional
# Salmonella typhimurium = assay: Antibacterial activity against Salmonella enterica subsp. enterica serovar Typhimurium PTCC 1609 assessed as reduction in cell growth incubated for 24 hrs by Mueller-Hinton Broth micro dilution method; type: functional
# Escherichia coli [8] = assay: Antibacterial activity against Escherichia coli PTCC 1330 assessed as reduction in cell growth incubated for 24 hrs by Mueller-Hinton Broth micro dilution method; type: functional
# HT-1080 [9] = assay: Cytotoxicity against human HT-1080 cells assessed as reduction in cell growth measured for 72 hrs by crystal violet staining based analysis; type: functional; conditions: HT-1080, 72 h
# MG-22A [10] = assay: Cytotoxicity against mouse MG-22A cells assessed as reduction in cell growth measured for 72 hrs by crystal violet staining based analysis; type: functional
# Staphylococcus aureus [11] = assay: Antibacterial activity against Staphylococcus aureus assessed as reduction in bacterial growth incubated for 12 hrs by broth micr-dilution method; type: functional
# Vibrio cholerae = assay: Antibacterial activity against Vibrio cholerae assessed as inhibition of bacterial growth; type: functional
# Escherichia coli [12] = assay: Antibacterial activity against Escherichia coli assessed as reduction in bacterial growth incubated for 12 hrs by broth micr-dilution method; type: functional
# Bacillus subtilis = assay: Antibacterial activity against Bacillus subtilis assessed as reduction in bacterial growth incubated for 12 hrs by broth micr-dilution method; type: functional
smiles,measurement,setting,value
CCCCCCCCCC[Si](C)(C)OCC[N+]1(C)CCc2ccccc2C1.[I-] (configuration not stated),LC50,HT-1080 [1],< 1 µg/mL
same,LC50,MG-22A [2],1 µg/mL
CC[Si](C)(CC)OCC[N+]1(C)CCc2ccccc2C1.[I-] (configuration not stated),LC50,HT-1080 [1],< 1 µg/mL
same,LC50,MG-22A [2],2 µg/mL
CCCC[Si](C)(C)Oc1ccc(C(=O)N[C@@H](Cc2ccc(-c3ccccc3)cc2)C(=O)NC2CC(C)(C)NC(C)(C)C2)cc1,IC50,[3],1.5 µM
CCOc1cc(Cl)c(C(=O)NC(=O)Nc2nc3c(s2)C[Si](C)(C)CC3)cc1N1CCOCC1,EC50,[4],1 µM
same,EC50,[5],1.2 µM
CC(C)(C)[Si](c1ccccc1)(c1ccccc1)c1cccc(CN(Cc2ccccn2)Cc2ccccn2)c1O,MIC,[6],1.2 µg/mL
C[Si](C)(C)C(S)(C(=S)CCCCn1nnc(SC(=O)c2ccccc2)n1)[Si](C)(C)C,MIC,Pseudomonas aeruginosa,3.91 µg/mL
same,MIC,Staphylococcus aureus [7],3.91 µg/mL
same,MIC,Salmonella typhimurium,3.91 µg/mL
same,MIC,Escherichia coli [8],3.91 µg/mL
CCCCCSc1nnn(CCCCC(=S)C(S)([Si](C)(C)C)[Si](C)(C)C)n1,MIC,Pseudomonas aeruginosa,3.91 µg/mL
same,MIC,Staphylococcus aureus [7],3.91 µg/mL
same,MIC,Salmonella typhimurium,3.91 µg/mL
same,MIC,Escherichia coli [8],3.91 µg/mL
C[Si](C)(C)c1ccc([Si](C)(CCCN2CCCCC2)c2ccc([Si](C)(C)C)o2)o1,IC50,HT-1080 [9],3 µg/mL
same,IC50,MG-22A [10],3 µg/mL
CCN(CC)CCC[Si](C)(c1ccc([Si](C)(C)C)o1)c1ccc([Si](C)(C)C)o1,IC50,HT-1080 [9],3 µg/mL
same,IC50,MG-22A [10],3 µg/mL
CC(C)(C)[Si](C)(C)c1cccc(CN(Cc2ccccn2)Cc2ccccn2)c1O,MIC,[6],1.2 µg/mL
O=c1c(F)cn(Cc2cn(CCC[Si-]345OCC[N+]3(CCO4)CCO5)nn2)c(=O)n1Cc1cn(CCC[Si-]234OCC[N+]2(CCO3)CCO4)nn1 (configuration not stated),MIC50,Staphylococcus aureus [11],0.18 µg/mL
same,MIC50,Vibrio cholerae,0.18 µg/mL
same,MIC50,Escherichia coli [12],0.18 µg/mL
same,MIC50,Bacillus subtilis,0.18 µg/mL
C[Si](CCCN1CCOCC1)(c1ccco1)c1ccco1,IC50,HT-1080 [9],100 µg/mL
same,IC50,MG-22A [10],38 µg/mL
C[Si](C)(C)C(S)(C(=S)CCCCn1nnc(SCc2ccccc2)n1)[Si](C)(C)C,MIC,Pseudomonas aeruginosa,3.91 µg/mL
same,MIC,Staphylococcus aureus [7],3.91 µg/mL
same,MIC,Salmonella typhimurium,3.91 µg/mL
same,MIC,Escherichia coli [8],3.91 µg/mL
CC(C)[Si](c1cccc(CN(Cc2ccccn2)Cc2ccccn2)c1O)(C(C)C)C(C)C,MIC,[6],1.2 µg/mL
CCC[Si](C)(C)Oc1ccc(C(=O)N[C@@H](Cc2ccc(OCc3c(Cl)cccc3Cl)cc2)C(=O)NC2CC(C)(C)NC(C)(C)C2)cc1,IC50,[3],1.5 µM
CCCCCC[Si](C)(CCCCCC)OCC[N+]1(C)CCc2ccccc2C1.[I-] (configuration not stated),LC50,HT-1080 [1],< 1 µg/mL
same,LC50,MG-22A [2],1 µg/mL
CC1(C)CC(NC(=O)[C@H](Cc2ccc(OCc3c(Cl)cccc3Cl)cc2)NC(=O)c2ccc(OCC[Si](C)(C)C)cc2)CC(C)(C)N1,IC50,[3],1.5 µM
C[Si](C)(C)c1ccc([Si](C)(CCCN2CCOCC2)c2ccc([Si](C)(C)C)o2)o1,IC50,HT-1080 [9],3 µg/mL
same,IC50,MG-22A [10],3 µg/mL
CCCCSc1nnn(CCCCC(=S)C(S)([Si](C)(C)C)[Si](C)(C)C)n1,MIC,Pseudomonas aeruginosa,3.91 µg/mL
same,MIC,Staphylococcus aureus [7],3.91 µg/mL
same,MIC,Salmonella typhimurium,3.91 µg/mL
same,MIC,Escherichia coli [8],3.91 µg/mL
CCCCCCCCCCCCCCCC[Si](C)(C)OCC[N+]1(C)CCc2ccccc2C1.[I-] (configuration not stated),LC50,HT-1080 [1],< 1 µg/mL
same,LC50,MG-22A [2],1 µg/mL
CCCC[Si](CC)(CCCC)OCC[N+]1(C)CCc2ccccc2C1.[I-] (configuration not stated),LC50,HT-1080 [1],< 1 µg/mL
same,LC50,MG-22A [2],2 µg/mL
CCN(CC)CCC[Si](C)(c1ccc([Si](CC)(CC)CC)o1)c1ccc([Si](CC)(CC)CC)o1,IC50,HT-1080 [9],3 µg/mL
same,IC50,MG-22A [10],3 µg/mL
C[Si](C)(C)c1cccc(CN(Cc2ccccn2)Cc2ccccn2)c1O,MIC,[6],1.2 µg/mL
CCOc1cc(Cl)c(C(=O)NC(=O)Nc2nc3c(s2)C[Si](c2ccccc2)(c2ccccc2)CC3)cc1N1CCOCC1,EC50,[4],1 µM
same,EC50,[5],1.2 µM
CCOP(=O)(OCC)C(NC(=O)[C@H](Cc1ccc(-c2ccccc2)cc1)NC(=O)c1ccc(OCC[Si](C)(C)C)cc1)P(=O)(OCC)OCC,IC50,[3],1.5 µM
